Experiment: mn = molality of the nth substance listed, in mol/kg
Settings: 100 kPa, Liquid; for viscosity: Capillary tube (Ostwald / Ubbelohde) method; for mass density: Vibrating tube method

CC[N+](CC)(CC)CC.[Br-] [tetraethylammonium bromide] + O
Settings	mass density, 288.15 K [kg/m3]	mass density, 298.15 K [kg/m3]	mass density, 308.15 K [kg/m3]	mass density, 318.15 K [kg/m3]	viscosity, 288.15 K [mPa·s]	viscosity, 298.15 K [mPa·s]	viscosity, 308.15 K [mPa·s]	viscosity, 318.15 K [mPa·s]
m1 = 0.05	1001.83	998.859	993.878	991.993	1.16	0.904	0.731	0.612
m1 = 0.5	1017.91	1015.99	1010.17	1007.21	1.341	1.043	0.836	0.7
m1 = 1	1035.82	1032.57	1027.25	1023.5	1.55	1.209	0.959	0.792
m1 = 2	1060.98	1057.94	1051.91	1046.83	1.942	1.513	1.189	0.952

— the NIST ThermoML archive (doi:10.1021/acs.jced.5b00940)
